pKi: −log10 of the molar value.
Biological target: Cell division control protein 42 homolog (Homo sapiens, UniProt P60953)
Assay: Cdc42 activated mutant GTP-binding inhibitors, SAR follow-up, biochemical, bead-based multiplex flow cytometry, additional SAR set (AID 2021)

Sequence of Cell division control protein 42 homolog (P60953 whole entry): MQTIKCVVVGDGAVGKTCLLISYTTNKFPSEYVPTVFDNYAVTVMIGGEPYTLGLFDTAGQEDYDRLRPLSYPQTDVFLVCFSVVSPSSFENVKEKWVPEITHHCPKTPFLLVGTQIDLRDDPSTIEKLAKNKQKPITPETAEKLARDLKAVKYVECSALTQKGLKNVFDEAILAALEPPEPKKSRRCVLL

In the case of `O=C1NC(=O)/C(=C2/C(=O)Nc3ccccc32)N1`, the pKi was 6.09.

`O=C1N=c2c(Br)cccc2=C1c1[nH]c2ccccc2c1NO` [7-bromanyl-3-[3-(oxidanylamino)-1H-indol-2-yl]indol-2-one] gave a pKi of 5.07.

Reference: BindingDB's records for doi:10.7270/Q22R3Q30 (Nmmlsc, 2009)
